We go through 17 compounds from US20090099169A1, “Benzofuran Compounds As EP1 Receptor Antagonists” (GLAXO GROUP LIMITED, priority 2006, published 2009).

The target of the assay is T1, human EP1 receptor (Homo sapiens, UniProt P34995).
T1 sequence (P34995 1-402): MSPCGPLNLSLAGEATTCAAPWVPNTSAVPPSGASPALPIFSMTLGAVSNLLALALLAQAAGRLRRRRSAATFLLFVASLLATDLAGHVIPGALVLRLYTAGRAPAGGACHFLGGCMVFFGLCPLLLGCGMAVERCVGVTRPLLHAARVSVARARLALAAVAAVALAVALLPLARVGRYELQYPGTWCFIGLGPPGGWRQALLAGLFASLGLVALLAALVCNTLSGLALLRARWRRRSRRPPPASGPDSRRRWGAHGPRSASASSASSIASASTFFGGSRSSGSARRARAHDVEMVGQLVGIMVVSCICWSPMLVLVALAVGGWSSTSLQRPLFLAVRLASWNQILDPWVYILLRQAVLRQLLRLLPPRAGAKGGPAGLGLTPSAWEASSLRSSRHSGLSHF
Briefly: human EP1 calcium mobilisation assay. The assay is classed as cell-based. The arrangement: expressed in transfected cells. The note with it: CHO-K1 cells, antagonism of PGE2; averages of a number of experiments; read-out: functional pKi value (human EP1 calcium mobilisation assay) (converted). As for the experimental part: Briefly, the antagonist properties of compounds are assessed by their ability to inhibit the mobilisation of intracellular calcium ([Ca^2+]i) in response to activation of EP1 or EP3 receptors by the natural agonist hormone prostaglandin E2 (PGE2). Increasing concentrations of antagonist reduce the amount of calcium that a given concentration of PGE2 can mobilise. The net effect is to displace the PGE2 concentration-effect curve to higher concentrations of PGE2. The amount of calcium produced is assessed using a calcium-sensitive fluorescent dye such as Fluo-4, AM and a suitable instrument such as a Fluorimetric Imaging Plate Reader (FLIPR). Increasing amounts of [Ca^2+]i produced by receptor activation increase the amount of fluorescence produced by the dye and give rise to an increasing signal. The signal may be detected using the FLIPR instrument and the data generated may be analysed with suitable curve-fitting software.
The human EP1 or EP3 calcium mobilisation assay (hereafter referred to as ‘the calcium assay’) utilises Chinese hamster ovary-K1 (CHO-K1) cells into which a stable (PCIN; BioTechniques 20 (1996): 102-110) vector containing either EP1 or EP3 cDNA has previously been transfected. Cells are cultured in suitable flasks containing culture medium such as DMEM:F-12 supplemented with 10% v/v foetal calf serum, 2 mM L-glutamine, 0.25 mg/ml geneticin, 100 μM flurbiprofen and 10 μg/ml puromycin.
For assay, cells are harvested using a proprietary reagent that dislodges cells such as Versene. Cells are re-suspended in a suitable quantity of fresh culture media for introduction into a 384-well plate. Following incubation for 24 hours at 37° C. the culture media is replaced with a medium containing Fluo-4 and the detergent pluronic acid, and a further incubation takes place. Concentrations of compounds are then added to the plate in order to construct concentration-effect curves. This may be performed on the FLIPR in order to assess the agonist properties of the compounds. Concentrations of PGE2 are then added to the plate in order to assess the antagonist properties of the compounds.
The data so generated may be analysed by means of a computerised curve-fitting routine. The concentration of compound that elicits a half-maximal inhibition of the calcium mobilisation induced by PGE2 (pIC50) may then be estimated.

Each structure is given as a SMILES string. Where a name gives a salt, the structure may show the parent alone. Bounds are passed on as bounds.

Take `CC(C)c1cc2cc(Cl)cc(Cc3ccc(-c4nc5cc(CN(C)C)ccc5[nH]4)o3)c2o1` [Example 11, 1-[2-(5-{[5-Chloro-2-(1-methylethyl)-1-benzofuran-7-yl]methyl}-2-furanyl)-1H-benzimidazol-5-yl]-N,N-dimethylmethanamine Hydrochloride]: the Ki was ≤ 316 nM.
As for `CC(C)c1cc2cc(Cl)cc(Cc3ccc(-c4nc5cc(CN6CCCC6)ccc5[nH]4)o3)c2o1` [Example 12, 2-(5-{[5-Chloro-2-(1-methylethyl)-1-benzofuran-7-yl]methyl}-2-furanyl)-5-(1-pyrrolidinylmethyl)-1H-benzimidazole Hydrochloride], the figure is ≤ 316 nM.
As for `CC(C)c1cc2cc(Cl)cc(Cc3ccc(-c4nc5cc(CN6CCN(C)CC6)ccc5[nH]4)o3)c2o1` [Example 13, 2-(5-{[5-Chloro-2-(1-methylethyl)-1-benzofuran-7-yl]methyl}-2-furanyl)-5-[(4-methyl-1-piperazinyl)methyl]-1H-benzimidazole Hydrochloride], the figure is ≤ 316 nM; as for `Cc1cc(C(=O)O)nn1Cc1cccc2cc(C(C)C)oc12` [Example 20, 5-Methyl-1-{[2-(1-methylethyl)-1-benzofuran-7-yl]methyl}-1H-pyrazole-3-carboxylic Acid], ≤ 316 nM.
For `Cc1cc(C(=O)NN2CCOCC2)nn1Cc1cc(Cl)cc2cc(C3CC3)oc12` [Example 31, 1-[(5-Chloro-2-cyclopropyl-1-benzofuran-7-yl)methyl]-5-methyl-N-4-morpholinyl-1H-pyrazole-3-carboxamide] the value was ≤ 316 nM; for `Cc1cc(C(=O)NC2CCNCC2)nn1Cc1cc(Cl)cc2cc(C(C)C)oc12` [Example 33, 1-{[5-chloro-2-(1-methylethyl)-1-benzofuran-7-yl]methyl}-5-methyl-N-4-piperidinyl-1H-pyrazole-3-carboxamide Hydrochloride], 1000 to 1580 nM; for `CCN1CCC(CNC(=O)c2cc(C)n(Cc3cc(Cl)cc4cc(C(C)C)oc34)n2)CC1` [Example 36, 1-{[5-chloro-2-(1-methylethyl)-1-beenzofuran-7-yl]methyl}-N-[(1-ethyl-4-piperidinyl)methyl]-5-methyl-1H-pyrazole-3-carboxamidehydrochloride], 1000 to 1580 nM.
`CC(C)c1cc2cc(Cl)cc(Cc3cccc(C(N)=O)n3)c2o1` [Example 40, 6-{[5-Chloro-2-(1-methylethyl)-1-benzofuran-7-yl]methyl}-2-pyridinecarboxamide]: the Ki is ≤ 316 nM.
For `Cc1cc(C(N)=O)nn1Cc1cc(C#N)cc2cc(C(C)C)oc12` [Example 41, 1-{[5-Cyano-2-(1-methylethyl)-1-benzofuran-7-yl]methyl}-5-methyl-1H-pyrazole-3-carboxamide] the value was ≤ 316 nM; for `CC(C)c1cc2cc(Cl)cc(Cc3ccc(C(=O)NN4CCOCC4)o3)c2o1` [Example 42, 5-{[5-Chloro-2-(1-methylethyl)-1-benzofuran-7-yl]methyl}-N-4-morpholinyl-2-furancarboxamide], ≤ 316 nM; for `CC(C)c1cc2cc(Cl)cc(Cc3ccc(C(=O)NN4CCCCC4)o3)c2o1` [Example 43, 5-{[5-Chloro-2-(1-methylethyl)-1-benzofuran-7-yl]methyl}-N-1-piperidinyl-2-furancarboxamide], ≤ 316 nM.
For `Cc1cc(C(=O)NN2CCOCC2)nn1Cc1cc(C#N)cc2cc(C(C)C)oc12` [Example 45, 1-{[5-Cyano-2-(1-methylethyl)-1-benzofuran-7-yl]methyl}-5-methyl-N-4-morpholinyl-1H-pyrazole-3-carboxamide] the value was ≤ 316 nM; for `CC(C)c1cc2cc(Cl)cc(Cc3ccc(C(=O)Nc4ccc(CN5CCOCC5)cc4)o3)c2o1` [Example 54, 5-{[5-Chloro-2-(1-methylethyl)-1-benzofuran-7-yl]methyl}-N-[4-(4-morpholinylmethyl)phenyl]-2-furancarboxamide Hydrochloride], ≤ 316 nM; for `CC(C)c1cc2cc(Cl)cc(Cc3ccc(C(=O)NCCN(C)C)o3)c2o1` [Example 58, 5-{[5-Chloro-2-(1-methylethyl)-1-benzofuran-7-yl]methyl}-N-[2-(dimethylamino)ethyl]-2-furancarboxamidehydrochloride], 1000 to 1580 nM.
As for `Cc1cc(C(=O)NCC2CCOCC2)nn1Cc1cc(Cl)cc2cc(C(C)C)oc12` [Example 61, 1-{[5-Chloro-2-(1-methylethyl)-1-benzofuran-7-yl]methyl}-5-methyl-N-(tetrahydro-2H-pyran-4-ylmethyl)-1H-pyrazole-3-carboxamide], the figure is ≤ 316 nM; as for `Cc1cc(NC(=O)[C@H]2CCCO2)nn1Cc1cc(C#N)cc2cc(C(C)C)oc12` [Example 69, (2R)—N-(1-{[5-Cyano-2-(1-methylethyl)-1-benzofuran-7-yl]methyl}-5-methyl-1H-pyrazol-3-yl)tetrahydro-2-furancarboxamide], ≤ 316 nM.
Turning to `Cc1cc(NC(=O)C2CCOCC2)nn1Cc1cc(C#N)cc2cc(C(C)C)oc12` [Example 70, N-(1-{[5-Cyano-2-(1-methylethyl)-1-benzofuran-7-yl]methyl}-5-methyl-1H-pyrazol-3-yl)tetrahydro-2H-pyran-4-carboxamide], the Ki was ≤ 316 nM.
